Laboratory results: ChEMBL document CHEMBL5506021, “Artificial Intelligence-Assisted Optimization of Antipigmentation Tyrosinase Inhibitors: De Novo Molecular Generation Based on a Low Activity Lead Compound” (J Med Chem, 2024)
The source made the active and inactive calls. The calls are words filed in the database; no cut-off is given here.

Tests used:
Mushroom tyrosinase [1] = target: T1, Mushroom tyrosinase (Agaricus bisporus, UniProt O42713+Q00024+C7FF04+C7FF05)
Description: Inhibition of mushroom tyrosinase diphenolase activity using L-dopamine as substrate preincubated for 10 mins followed by substrate addition and measured after 20 mins by absorbance based assay

Mushroom tyrosinase [2] = target: T1, Mushroom tyrosinase; remark: listed apart in the source
Description: Inhibition of mushroom tyrosinase monophenolase activity using L-tyrosine as substrate preincubated for 10 mins followed by substrate addition and measured after 20 mins by absorbance based assay

[3] = Toxicity in wildtype AB zebrafish assessed as effect on phenotype at 1 to 5 microM incubated for 45 hrs by anatomic microscopic analysis; set-up: species or system Danio rerio; details: in vivo, dose 1-5 µM
[4] = Toxicity in wildtype AB zebrafish assessed as effect on phenotype at 10 to 50 microM incubated for 45 hrs by anatomic microscopic analysis; set-up: species or system Danio rerio; details: in vivo, dose 10-50 µM
[5] = Toxicity in wildtype AB zebrafish assessed as effect on growth at 1 to 5 microM incubated for 45 hrs by anatomic microscopic analysis; set-up: species or system Danio rerio; details: in vivo, dose 1-5 µM
[6] = Toxicity in wildtype AB zebrafish assessed as effect on growth at 10 to 50 microM incubated for 45 hrs by anatomic microscopic analysis; set-up: species or system Danio rerio; details: in vivo, dose 10-50 µM
Danio rerio [7] = species on record: Danio rerio; assay: Anti-pigmentation activity in wildtype AB zebrafish assessed as depigmentation at 5 uM incubated for 45 hrs by anatomical microscopic analysis; type: functional
Danio rerio [8] = species on record: Danio rerio; assay: Anti-pigmentation activity in wildtype AB zebrafish assessed as melanin looseness in head at 5 uM incubated for 45 hrs by anatomical microscopic analysis; type: functional, organism-based
Danio rerio [9] = species on record: Danio rerio; assay: Anti-pigmentation activity in wildtype AB zebrafish assessed as melanin reduction in head at 5 uM incubated for 45 hrs by anatomical microscopic analysis; type: functional, organism-based
[10] = zebrafish, in vivo, 45 h
Description: Toxicity in wildtype AB zebrafish assessed as minimum toxic concentration measured after 45 hrs

[11] = Metabolic stability in human plasma assessed as compound remaining at 100 uM incubated for 120 mins by LC/MS analysis; type: ADME, cell-free; details: read-out: Stability
[12] = Metabolic stability in human plasma assessed as half-life at 100 uM incubated for 120 mins by LC/MS analysis; type: ADME, cell-free
[13] = Metabolic stability in human liver microsomes assessed as compound remaining at 1.5 uM incubated for 45 mins by LC/MS analysis; type: ADME, Microsome; details: read-out: Stability
[14] = Metabolic stability in human liver microsomes assessed as half-life at 1.5 uM preincubated for 5 mins followed by NADPH addition and measured after 10 mins by LC/MS analysis; type: ADME, Microsome; details: time 15 min
[15] = Metabolic stability in human liver microsomes assessed as intrinsic clearance at 1.5 uM preincubated for 5 mins followed by NADPH addition and measured after 10 mins by LC/MS analysis; type: ADME, Microsome; details: time 15 min, read-out: CLH
[16] = Metabolic stability in human liver microsomes assessed as hepatic extraction ratio at 1.5 uM preincubated for 5 mins followed by NADPH addition and measured after 10 mins by LC/MS analysis; type: ADME, Microsome; details: time 15 min, read-out: ERH
Tyrosinase = target: T2, Tyrosinase (Homo sapiens, UniProt P14679); assay: Binding affinity to tyrosinase (unknown origin) assessed as dissociation constant by SPR analysis
T2 sequence (P14679 whole entry): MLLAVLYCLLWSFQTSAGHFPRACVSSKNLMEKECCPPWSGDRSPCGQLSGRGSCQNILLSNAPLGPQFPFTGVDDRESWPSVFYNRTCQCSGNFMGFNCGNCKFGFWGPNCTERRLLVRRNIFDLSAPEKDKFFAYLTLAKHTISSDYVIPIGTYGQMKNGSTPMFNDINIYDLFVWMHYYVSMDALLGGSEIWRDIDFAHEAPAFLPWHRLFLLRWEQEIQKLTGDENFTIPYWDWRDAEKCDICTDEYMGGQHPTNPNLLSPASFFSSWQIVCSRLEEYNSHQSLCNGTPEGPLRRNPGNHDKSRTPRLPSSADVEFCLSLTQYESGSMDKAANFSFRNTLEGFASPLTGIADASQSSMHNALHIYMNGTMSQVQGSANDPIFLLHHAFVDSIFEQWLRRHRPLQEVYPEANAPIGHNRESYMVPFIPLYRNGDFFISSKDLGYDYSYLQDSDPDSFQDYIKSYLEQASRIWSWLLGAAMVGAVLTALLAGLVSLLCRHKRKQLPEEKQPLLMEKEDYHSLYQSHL

Which results are given for Cc1ccc(/C=C/CN2CCN(C(=O)CCC(=O)Nc3ccc(O)cc3)CC2)cc1?
IC50 (Mushroom tyrosinase [1]): 131.77 µM; IC50 (Mushroom tyrosinase [2]): 40.34 µM

With Cc1ccc(NC(=O)CCC(=O)N2CCCN(C/C=C/c3ccccc3)CC2)c(C)c1 as the compound, how does the IC50 (Mushroom tyrosinase [1]) read?
Its IC50 is over 800 µM.

What about the IC50 (Mushroom tyrosinase [2]) of the same compound?
The IC50 was 681.3 µM.

With Cc1ccc(NC(=O)CCCN2CCN(C/C=C/c3ccccc3)CC2)c(C)c1 as the compound, how does the Activity [3] read?
The Activity was “Non-Toxic”.

And the Activity [4]?
The Activity was “Toxic”.

And the Activity [5]?
The Activity was “Non-Toxic”.

And the Activity [6]?
Its Activity is “Toxic”.

And the Activity (Danio rerio [7])?
Its Activity is 9.98%.

What about the Activity (Danio rerio [8]) of the same compound?
Its Activity is “Active”.

What about the Activity (Danio rerio [9]) of the same compound?
The Activity was “Active”.

What about the IC50 (Mushroom tyrosinase [1]) of the same compound?
Its IC50 is over 800 µM.

What about the IC50 (Mushroom tyrosinase [2]) of the same compound?
Its IC50 is 652.9 µM.

What about the MTC [10] of the same compound?
Its MTC is 50 µM.

Which results are given for Cc1ccc(NC(=O)CCN2CCCN(C/C=C/c3ccccc3)CC2)cc1?
IC50 (Mushroom tyrosinase [1]): 536.05 µM; IC50 (Mushroom tyrosinase [2]): 338.4 µM

Which results are given for Cc1ccc(C)c(NC(=O)CC(=O)N2CCCN(C/C=C/c3ccccc3)CC2)c1?
IC50 (Mushroom tyrosinase [1]): > 800 µM; IC50 (Mushroom tyrosinase [2]): 744.95 µM

With Cc1ccc(/C=C/CN2CCN(C(=O)CCCC(=O)Nc3ccccn3)CC2)cc1 as the compound, how does the IC50 (Mushroom tyrosinase [1]) read?
The IC50 was 329.55 µM.

And the IC50 (Mushroom tyrosinase [2])?
The IC50 was 192.93 µM.

What does the source list for Cc1ccc(NC(=O)CN2CCCN(C/C=C/c3ccccc3)CC2)c(C)c1?
IC50 (Mushroom tyrosinase [1]): > 800 µM; IC50 (Mushroom tyrosinase [2]): > 800 µM

With Cc1ccc(C)c(NC(=O)CCN2CCCN(C/C=C/c3ccccc3)CC2)c1 as the compound, how does the IC50 (Mushroom tyrosinase [1]) read?
The IC50 was 555.4 µM.

What about the IC50 (Mushroom tyrosinase [2]) of the same compound?
The IC50 was 234.2 µM.

With Cc1ccc(F)cc1NC(=O)CCN1CCCN(C/C=C/c2ccccc2)CC1 as the compound, how does the IC50 (Mushroom tyrosinase [1]) read?
The IC50 was over 800 µM.

What about the IC50 (Mushroom tyrosinase [2]) of the same compound?
The IC50 was 639.85 µM.

Which results are given for Cc1ccc(NC(=O)CCN2CCCN(C/C=C/c3ccccc3)CC2)cc1C?
IC50 (Mushroom tyrosinase [1]): > 800 µM; IC50 (Mushroom tyrosinase [2]): > 800 µM

What does the source list for Cc1ccc(C)c(NC(=O)CN2CCCN(C/C=C/c3ccccc3)CC2)c1?
IC50 (Mushroom tyrosinase [1]): > 800 µM; IC50 (Mushroom tyrosinase [2]): > 800 µM

For Cc1ccc(/C=C/CN2CCN(C(=O)CCC(=O)Nc3ccccc3O)CC2)cc1, which remaining at 2 h, 100 µM [11] is on record?
The remaining at 2 h, 100 µM was 94.6%.

And the half-life at 100 µM [12]?
Its half-life at 100 µM is over 120 min.

And the remaining at 0.75 h, 1.5 µM [13]?
The remaining at 0.75 h, 1.5 µM was 28.1%.

And the half-life at 1.5 µM [14]?
The half-life at 1.5 µM was 24.6 min.

And the CLint scaled at 1.5 µM [15]?
The CLint scaled at 1.5 µM was 3.91 L/h/kg.

And the hepatic extraction ratio at 10 min, 1.5 µM [16]?
Its hepatic extraction ratio at 10 min, 1.5 µM is 0.759.

And the Kd (Tyrosinase)?
The Kd was 198 µM.

What about the IC50 (Mushroom tyrosinase [1]) of the same compound?
The IC50 was 31.01 µM.

And the IC50 (Mushroom tyrosinase [2])?
Its IC50 is 11.49 µM.

And the MTC [10]?
The MTC was 5 µM.

With Cc1ccc(NC(=O)CC(=O)N2CCCN(C/C=C/c3ccccc3)CC2)c(C)c1 as the compound, how does the IC50 (Mushroom tyrosinase [1]) read?
Its IC50 is over 800 µM.

What about the IC50 (Mushroom tyrosinase [2]) of the same compound?
The IC50 was 732.35 µM.

Which IC50 (Mushroom tyrosinase [1]) does the source give for Cc1ccc(NC(=O)CCC(=O)Nc2cnn(C/C=C/c3ccccc3)c2)c(C)c1 here?
Its IC50 is over 800 µM.

And the IC50 (Mushroom tyrosinase [2])?
The IC50 was over 800 µM.

What does the source list for Cc1ccc(/C=C/CN2CCN(C(=O)CCC(=O)Nc3cccc(O)c3)CC2)cc1?
IC50 (Mushroom tyrosinase [1]): > 800 µM; IC50 (Mushroom tyrosinase [2]): 217.17 µM

What does the source list for Cc1ccc(/C=C/CN2CCN(C(=O)CCC(=O)Nc3ccccc3C)CC2)cc1?
IC50 (Mushroom tyrosinase [1]): 204.3 µM; IC50 (Mushroom tyrosinase [2]): 173 µM

For Cc1cc(Cl)ccc1NC(=O)CN1CCCN(C/C=C/c2ccccc2)CC1, which IC50 (Mushroom tyrosinase [1]) is on record?
Its IC50 is over 800 µM.

And the IC50 (Mushroom tyrosinase [2])?
Its IC50 is over 800 µM.

Which results are given for Cc1cc(C)c(NC(=O)CCN2CCCN(C/C=C/c3ccccc3)CC2)c(C)c1?
IC50 (Mushroom tyrosinase [1]): > 800 µM; IC50 (Mushroom tyrosinase [2]): 465.1 µM

With Cc1ccccc1NC(=O)CN1CCCN(C/C=C/c2ccccc2)CC1 as the compound, how does the IC50 (Mushroom tyrosinase [1]) read?
The IC50 was over 800 µM.

And the IC50 (Mushroom tyrosinase [2])?
The IC50 was over 800 µM.

With Cc1cccc(C)c1NC(=O)CCCN1CCCN(C/C=C/c2ccccc2)CC1 as the compound, how does the IC50 (Mushroom tyrosinase [1]) read?
Its IC50 is over 800 µM.

And the IC50 (Mushroom tyrosinase [2])?
Its IC50 is 248.7 µM.

Which results are given for Cc1ccc(NC(=O)CCN2CCCN(C/C=C/c3ccccc3)CC2)c(C)c1?
IC50 (Mushroom tyrosinase [1]): 465.1 µM; IC50 (Mushroom tyrosinase [2]): 255.4 µM

With Cc1cccc(C)c1NC(=O)CN1CCN(C/C=C/c2ccccc2)CC1 as the compound, how does the IC50 (Mushroom tyrosinase [1]) read?
The IC50 was 244.6 µM.

What about the IC50 (Mushroom tyrosinase [2]) of the same compound?
Its IC50 is 88.01 µM.

What does the source list for Cc1ccc(C)c(NC(=O)CCC(=O)N2CCCN(C/C=C/c3ccccc3)CC2)c1?
IC50 (Mushroom tyrosinase [1]): > 800 µM; IC50 (Mushroom tyrosinase [2]): 393.05 µM
